Molecules are shown by their SMILES. Where only a bound is given, the exact number is not on record here.

In turn, `O=C(O)c1cn(C2COC2)c2c(F)c(F)cc(F)c2c1=O` yielded a melting point greater than 300 °C. To `CC1(c2nnc(S(C)(=O)=O)s2)CC(F)(F)C1(F)Cl` (configuration not stated) belongs 63 °C. The value for `O=C(O)[C@@H]1CN(CCn2c(=O)ccc3c(F)cc(F)cc32)CC[C@H]1NCc1cc2c(cn1)OCCO2` was greater than 190 °C; that for `CC1CN(c2nc3ccccc3s2)N=C1N` (configuration not stated) was 207 to 209 °C. Consider `COc1cc(N2CCN(C[C@H](C)O)CC2)ccc1Nc1ncc2ccc(-c3cc(Cl)ccc3OC)n2n1`, for which the melting point fell in the range of 163 to 166 °C. `COc1ccc(C(=O)NCc2ccccc2)c2c1oc1ccc(N)cc12` registered a melting point of 228 °C. As to `CC(=O)N(C)Cc1ccc2c(c1)C(Cc1ccnc(F)c1)(Cc1ccnc(F)c1)c1ccccc1-2`, the melting point is 136 to 137 °C. `O=[N+]([O-])c1ccc(CCN2CCN(c3nsc4ccccc34)CC2)cc1`: the melting point came to 99 °C. As to `CCCCC[C@@H](CNC(=O)Nc1c(OC(C)C)ccc2c1CCCC2)c1cccc2c1OCO2`, the melting point stood at 115 °C. `O=c1[nH]cc(-c2cc(-c3cnc4ccccc4c3)ccn2)n1-c1ccc(N2CCNCC2)c(C(F)(F)F)c1`: the melting point turned out to be 155 °C.

Take `O=C(O)CCCCCCNC(=O)C1Cc2ccccc2N1S(=O)(=O)c1ccc(-c2cccc(C(F)(F)F)c2)cc1` (configuration not stated): the melting point lay in the range of 65 to 70 °C. Regarding `CC(C)C(Br)=C(c1ccccc1)c1ccccc1`, the melting point fell in the range of 112 to 114 °C. For `COc1ccc(-n2nc(Sc3ccc(C(F)(F)F)cc3)c(C)c(C#N)c2=O)cc1`, the melting point lay within 151 to 155 °C.

As to `Cc1c2c(nn1-c1ccccc1)c(Cl)nc1ccccc12`, the melting point is 208 to 209 °C. In turn, `CC(=O)NNC(=N)C(Cl)(Cl)Cl` displayed a melting point of 130 to 132 °C. Compound `c1ccc(Cc2nc3cnc4ccccc4c3s2)cc1` returned a melting point of 111 to 113 °C. `CCOC(=O)c1c(N2CCCC2)c2cnc(-c3ccccc3)nc2n(CC)c1=O` yielded a melting point of 149 to 153 °C. To `COC(=O)c1cc(Cl)c(N=C2NCCN2)c(Cl)c1` belongs 229 to 231 °C.

In turn, `Cc1oc(-c2cccs2)nc1COc1ccc(Cn2cc(CCC(=O)O)c(-c3ccccc3)n2)cc1` registered a melting point of 159 to 160 °C. As to `COc1ccc(-c2cc(=O)c3c(OC)cc(OC)c(C4=CCN(C)CC4)c3o2)c(OC)c1OC`, the melting point lay within 209 to 210 °C. The compound `O=C(O)c1cc(N2C(=O)C3=C(CCCC3)C2=O)ccc1O` gave a melting point of 240 °C. `CCOC(=O)c1cn(-c2ccc(F)c(NC(C)(C)C)n2)c2c(Cl)c(F)c(F)cc2c1=O` displayed a melting point of 207 to 210 °C. As for `CCOc1cccc(COc2ccc3c(c2)C=C(C(=O)O)CCS3(=O)=O)c1`, the melting point was 150 to 154 °C. In the case of `Fc1ccc(OCCCN2CCN(c3ncc4ccccc4n3)CC2)cc1`, the melting point was in the range of 126 to 128 °C. `[N-]=[N+]=NCCc1c[nH]c(=O)[nH]c1=O` returned a melting point of 230 to 235 °C. As for `Cc1cc(-n2ncc(=O)[nH]c2=O)cc(Cl)c1Oc1ccc(O)c(S(=O)(=O)c2ccccc2)c1`, the melting point lay within 78 to 81 °C. Turning to `COc1ccccc1C(=O)Nc1ccc(C(=O)N2Cc3cccn3Cc3ccccc32)cc1`, the melting point was in the range of 185 to 188 °C. Regarding `CCCc1nc(N)nc(N)c1N1CCN(Cc2ccccc2)CC1`, the melting point lay in the range of 157 to 160 °C.

In the case of `CN(C)c1ccc2c(c1)CN1C(=Nc3cccnc3)SC[C@@H]1C2`, the melting point was determined as 138 °C.

`CCC(O)c1c(C)nc2ccccc2c1N` (configuration not stated): the melting point was 220 to 230 °C. The compound `Nc1nc2c(s1)CCN(CC=Cc1ccc3[nH]ccc3c1)CC2` displayed a melting point of 60 to 65 °C. With `CCC1(C=O)CSc2ccccc2C(c2ccccc2)=N1` (racemic), the melting point is 98 to 100 °C. Take `CC(C)(C)OC(=O)NC(CC1CCCCC1)C(O)C(O)C(CC1CCCCC1)NC(=O)OC(C)(C)C` (configuration not stated): the melting point lay within 224 to 226 °C. The compound `O=C1SC(CCCC#Cc2ccc(Cl)cc2)(S(=O)(=O)c2ccc(I)cc2)C(=O)N1Cc1ccc([N+](=O)[O-])cc1` (configuration not stated) gave a melting point of 172 to 175 °C. `O=C1Nc2cc(Cl)ccc2Cn2cccc21` registered a melting point of 177 to 179 °C. Turning to `COc1cccc([C@H]2O[C@H](CC(=O)N[C@H](CCSC)C(=O)O)C(=O)N(CC(C)(C)C)c3ccc(Cl)cc32)c1OC`, the melting point fell in the range of 161 to 162 °C. The value for `CNCCNc1noc2cc(OC)ccc12` was 136 to 137 °C. The compound `CCOC(=O)Cc1c(C)nn(-c2ccccc2)c1C` had a melting point of 86 to 87 °C. `COc1cccc(CNS(=O)(=O)c2ccc(C(CC3CCCC3)C(=O)Nc3nc4ccc(OC)nc4s3)cc2)c1` (configuration not stated) had a melting point of 179 to 181 °C. The value for `COc1ccc(OCCCCCCCc2cc(C)no2)c(Cl)c1` was 45 to 46 °C.

In turn, `C=COc1nc2c(c3ccccc13)c1cc(Cl)ccc1n2C` displayed a melting point of 121 to 124 °C. The compound `COC(=O)C(Oc1ccc(Cl)cc1)c1ccc(Oc2ccc(S(C)(=O)=O)cc2)cc1` (configuration not stated) had a melting point of 182 to 183 °C. Compound `COc1c2occc2cc2cc(C(=O)O)c(=O)oc12` gave a melting point of 227 to 228 °C. To `CN1CCN(c2ccc(Br)cc2)CC1` belongs 78 to 80 °C; to `O=C(O)Cc1onc(-c2ccccc2)c1-c1ccccc1`, 153 to 157 °C; to `CSc1ccc(-c2oc3ccccc3c(=O)c2-c2ccc(C(F)(F)F)cc2)cc1`, 189 to 192 °C. As for `CCCc1c(C(=O)C=C(C)C)c2ccc(C(N)=O)cc2n1Cc1cc2c(cc1Cl)OCO2`, the melting point is 227 to 229 °C.

`COc1cc(C2c3cc4c(cc3C(NC3=CC(=O)N(Cc5ccc(F)cc5)C3=O)C3COC(=O)C23)OCO4)cc(OC)c1O[Si](C)(C)C(C)(C)C` (configuration not stated) came in with a melting point of 182 to 184 °C.

For the compound `CC(O)(CCCc1ccc(Cl)cc1)c1ccc(OCc2ccc3ccccc3n2)cc1` (configuration not stated), the melting point was in the range of 110 to 112 °C. `CC1CCC(C(C)C)C(OC(=O)N2CC(=O)N(C)c3ccc(Cl)cc3C2c2ccccc2)C1` (configuration not stated): the melting point worked out at 144 °C. To `COc1cccc(CCOc2cccc(-c3cccc(C(=O)O)c3)n2)c1` belongs 156 to 157 °C. As for `O=C(O)CCCNC1=NS(=O)(=O)c2ccccc21`, the melting point lay in the range of 200 to 202 °C.

Turning to `CC(C)[C@H](S)C(=O)NC(C)(C)C(=O)N[C@@H](Cc1ccc(O)cc1)C(=O)O`, the melting point lay within 180 to 181 °C. The value for `CN1CCC(OC2c3cccc(CCc4ccccc4)c3CCn3cc(-c4ccccc4)nc32)CC1` (configuration not stated) was 67 °C. Turning to `COC(=O)c1ccc(OCCNC(=O)C2Cc3ccccc3N2S(=O)(=O)c2ccc(-c3cccc(C(F)(F)F)c3)cc2)c(C)c1` (configuration not stated), the melting point was 68 to 74 °C.

As for `CC(=O)NC[C@H]1CN(c2ccc(C3CCN(C(=O)c4ccno4)CC3)c(F)c2)C(=O)O1`, the melting point lay in the range of 290 to 292 °C. `COC1Cn2ccc(=O)c(OCc3ccccc3)c2C(c2ccccc2)O1` (configuration not stated): the melting point is 202 to 204 °C. In the case of `CON=C(Nc1nc(C)cc(C)n1)NS(=O)(=O)c1ccccc1-c1ccccc1`, the melting point was in the range of 190 to 192 °C. The compound `CC(=O)c1c(CBr)c(CBr)c(C(C)=O)c2c1C(=O)c1ccccc1C2=O` had a melting point of 225 to 227 °C. The value for `N#Cc1ccc(N2CCc3[nH]c4c(cnc5cc(Cl)ccc54)c3C2)cc1` was greater than 275 °C; that for `Cc1ccc(CC2CNC(=O)O2)cc1` (configuration not stated) was 144 to 146 °C. `COCCn1cc2c(C3C(=O)Nc4ccc(Br)cc43)nc(NCC(C)O)nc2n1` (configuration not stated) showed a melting point greater than 300 °C. Compound `CC1(C)COP(=O)(O)OC1c1ccc2ccccc2c1` (configuration not stated) showed a melting point of 237 to 238 °C. `COc1cc2cc3ncc(C#N)c(Nc4ccc(Oc5ccccc5)c(Cl)c4)c3cc2cc1OCCN1CCOCC1` displayed a melting point of 251 to 253 °C. As for `O=c1c2ccc(Cl)cc2ncn1CCCCn1ccnc1`, the melting point fell in the range of 123 to 125 °C. `Cn1ncc2c1CC(C)(C)C(C=O)C2=O` (configuration not stated) had a melting point of 131 to 132 °C. To `O=C(CN1C2=NCCN2c2ccccc21)c1ccccc1` belongs 178 to 179 °C. As to `CS(=O)(=O)c1ccc(C2=C(c3ccccc3)CN(C3CCCCC3)C2=O)cc1`, the melting point lay in the range of 183 to 185 °C.

In turn, `Cn1cccc1CCNC(=O)Cn1c(-c2ccc(Cl)cc2)nc2cccnc21` showed a melting point of 171 to 172 °C. To `CCCCc1nc2c(N)nc3c(c2n1CC(C)C)NCCC3` belongs 143 to 147 °C; to `CC(=O)OC1CSC(Oc2ccc(-c3cnoc3C)nc2)C(OC(C)=O)C1OC(C)=O` (configuration not stated), 165 °C. Compound `Cc1cc(NC(=O)C(F)(c2ccccc2)c2nnn(CCCCCCCCCCCC(F)F)n2)c(C)c(C)c1O` (configuration not stated) yielded a melting point of 96 °C. `Cn1ccnc1C(=O)c1cc(C(C)(C)C)c(O)c(C(C)(C)C)c1` displayed a melting point of 172 to 174 °C. Regarding `Cc1cccc(OCCF)c1S(N)(=O)=O`, the melting point is 103 °C. For the compound `COc1cccc(C2(O)c3c(C)c(NC(=O)CC(C)(C)C)c(C)c(C)c3OC2(C)C)c1` (configuration not stated), the melting point fell in the range of 154 to 155 °C. Compound `CCC1(CC)COP(=O)(Cc2ccc(N)cc2)OC1` yielded a melting point of 128 to 129 °C.

As to `COc1cc2ncnc(N3CCC(O)(CCI)CC3)c2cc1OC`, the melting point was in the range of 179 to 181 °C. The compound `CC(C)(C)c1ccc(OCC(=O)Nc2nnc(-c3cccc(Oc4cccc(C(F)(F)F)c4)c3)s2)cc1` had a melting point of 179 to 180 °C. Take `COc1ccc(S(=O)(=O)[C@H](CCCCc2ccccc2)[C@@H](CCS(=O)(=O)c2ccccc2)C(=O)NO)cc1OC`: the melting point fell in the range of 78 to 81 °C. `CC(C)(C)OC(=O)NC1Cc2ccccc2N(c2ccccc2)C1` (configuration not stated) displayed a melting point of 139 to 141 °C. The value for `COc1ccc(C=CC2=NNC(C)Cc3cc4c(cc32)OCO4)cc1OC` (configuration not stated) was 166 to 168 °C; that for `CC(=O)c1ccc(N2CCN(c3ccncc3)CC2)cc1` was 176 to 177 °C.

Values taken from a melting point compilation (Tetko et al.; mined from patent text by program, amines drawn as free bases though some values may be those of a salt).
